Assay results as given in patent publication US20230241257A1, “BIOTIN-MODIFIED DIMER AND USE THEREOF” (THE UNIVERSITY OF TOKYO, priority 2020, published 2023).

Experiments:
[1] = system: human stomach cancer cells (MKN-45); test: Experiment 6: pharmacokinetics of Cupid-scFv antibody (48 h before)+^211At-psyche-BR in MKN-45 cancer-bearing mouse models; type: in vivo, mice (BALB/cSlc nu/nu)
Method: The present experiment used human stomach cancer cells (MKN-45) expressing carcinoembryonic antigen (CEA). 9-week-old male immunodeficient mice (BALB/cSlc nu/nu) were used. MKN-45 cells (1×10^7/0.1 ml) were transplanted into the mice's subcutis on the right shoulder dorsal side to produce cancer-bearing mouse models. The mice were divided into four groups when the tumor volume became a predetermined size (on Day 12 after the transplantation), and the Cupid-scFv antibody was administered 100 μmol/0.1 ml via the caudal vein of each mouse. Forty-eight hours after administration of the Cupid-scFv antibody, […] (about 0.25 MBq/100 ml) was administered via the caudal vein of each mouse. One minute, 1 hour, 6 hours, and 24 hours after administration of the ^211At-psyche-BR, the mice were euthanized by collecting whole blood from the heart of each mouse under isoflurane anesthesia, and tumor tissues and normal tissues/organs were then excised. Normal tissues/organs: skin (lower right limb), muscle (right gastrocnemius muscle), heart, lung, spleen, pancreas, white fat (upper portion of right side testis), testis (both sides), stomach, stomach contents, small intestine (not including contents), large intestine (not including contents), liver, brown fat (interscapular), submandibular gland, thyroid gland (together with trachea), bone (right femur), cerebrum, eyeballs (both sides), bladder, and urine; the remaining residues were divided into three equal parts, and the three equal parts were defined to be residue-1, residue-2, and residue-3. After that, the weights of blood, plasma, urine, tumor, and normal tissues/organs were measured, and the radioactivity thereof was then measured using a γ counter. The amounts of the ^211At-psyche-BR (radioactivity) accumulated in the blood, plasma, urine, tumor, and normal tissues/organs were calculated. That is to say, the rates (% ID/g) of the ^211At-psyche-BR accumulated per unit weight (g) of the blood, plasma, urine, tumor, and normal tissues/organs, in the administered ^211At-psyche-BR were shown. Regarding accumulation of the ^211At-psyche-BR in the thyroid gland, since the weight of the thyroid gland could not be precisely measured, it was shown that the rate (% ID) of the ^211At-psyche-BR accumulated in the thyroid gland in the administered ^211At-psyche-BR.

[2] = system: human stomach cancer cells (MKN-45); test: Experiment 7: pharmacokinetics of ^211At-psyche-BR in the absence of Cupid-scFv antibody in MKN-45 cancer-bearing mouse models; type: in vivo, mice (BALB/cSlc nu/nu); conditions: no Cupid-scFv antibody
Method: The present experiment used human stomach cancer cells (MKN-45) expressing carcinoembryonic antigen (CEA). 9-week-old male immunodeficient mice (BALB/cSlc nu/nu) were used. MKN-45 cells (1×10^7/0.1 ml) were transplanted into the mice's subcutis on the right shoulder dorsal side to produce cancer-bearing mouse models. The mice were divided into four groups at the time the tumor volume became a predetermined size (on Day 19 after the transplantation), and ^211At-psyche-BR was administered via the caudal vein of each mouse. One minute, 1 hour, 6 hours, and 24 hours after administration of the ^211At-psyche-BR, the mice were euthanized by collecting whole blood from the heart of each mouse under isoflurane anesthesia, and tumor tissues and normal tissues/organs were then excised. Normal tissues/organs: muscle (right gastrocnemius muscle), heart, lung, spleen, pancreas, testis (both sides), stomach, stomach contents, small intestine (not including contents), large intestine (not including contents), liver, kidney, submandibular gland, thyroid gland (together with trachea), bone (right femur), and cerebrum. After that, the weights of blood, plasma, tumor, and normal tissues/organs were measured, and the radioactivity thereof was then measured using a γ counter. The amounts of the ^211At-psyche-BR (radioactivity) accumulated in the blood, plasma, urine, tumor, and normal tissues/organs were calculated. That is to say, the rates (% ID/g) of the ^211At-psyche-BR accumulated per unit weight (g) of the blood, plasma, urine, tumor, and normal tissues/organs, in the administered ^211At-psyche-BR were shown. Regarding accumulation of the ^211At-psyche-BR in the thyroid gland, since the weight of the thyroid gland could not be precisely measured, it was shown that the rate (% ID) of the ^211At-psyche-BR accumulated in the thyroid gland in the administered ^211At-psyche-BR.

N=C1N[C@H]2[C@H](CS[C@H]2CCCCNC(=O)CCCCCC(=O)Nc2cc(NC(=O)CCCCCC(=O)NCCCC[C@@H]3SC[C@@H]4NC(=N)N[C@@H]43)cc(C(=O)NCCOCCOCCNC(=O)c3cccc([211At])c3)c2)N1 [^211At-psyche-BR]
Accumulation in the blood ([1]; after 1 minute): 26.4±2.7 % ID/g
Accumulation in the kidney ([1]; after 1 minute): 81.7±11.8 % ID/g
Accumulation in the liver ([1]; after 1 minute): 31.5±4.3 % ID/g
Accumulation in the lung ([1]; after 1 minute): 9.5±0.4 % ID/g
Accumulation in the spleen ([1]; after 1 minute): 3.4±0.2 % ID/g
Accumulation in the tumor ([1]; after 1 minute): 0.5±0.0 % ID/g
tumor-to-blood ratio ([1]; after 1 minute): 0.02±0.00
tumor-to-muscle ratio ([1]; after 1 minute): 1.30±0.06
Accumulation in the blood ([1]; after 1 hour): 30.6±3.2 % ID/g
Accumulation in the kidney ([1]; after 1 hour): 54.5±4.0 % ID/g
Accumulation in the liver ([1]; after 1 hour): 19.8±1.3 % ID/g
Accumulation in the lung ([1]; after 1 hour): 12.7±0.6 % ID/g
Accumulation in the spleen ([1]; after 1 hour): 6.8±0.3 % ID/g
Accumulation in the tumor ([1]; after 1 hour): 3.2±0.5 % ID/g
tumor-to-blood ratio ([1]; after 1 hour): 0.10±0.01
tumor-to-muscle ratio ([1]; after 1 hour): 5.13±0.67
Accumulation in the blood ([1]; after 6 hours): 22.7±2.7 % ID/g
Accumulation in the kidney ([1]; after 6 hours): 15.0±2.3 % ID/g
Accumulation in the liver ([1]; after 6 hours): 18.7±2.7 % ID/g
Accumulation in the lung ([1]; after 6 hours): 7.5±3.3 % ID/g
Accumulation in the spleen ([1]; after 6 hours): 9.7±1.0 % ID/g
Accumulation in the tumor ([1]; after 6 hours): 9.3±1.4 % ID/g
tumor-to-blood ratio ([1]; after 6 hours): 0.42±0.11
tumor-to-muscle ratio ([1]; after 6 hours): 11.42±1.05
Accumulation in the thyroid gland ([1]; after 24 h): 0.19±0.03 % ID
Accumulation in the blood ([1]; after 24 hours): 1.6±1.0 % ID/g
Accumulation in the kidney ([1]; after 24 hours): 5.6±1.0%
Accumulation in the liver ([1]; after 24 hours): 8.9±1.7%
Accumulation in the lung ([1]; after 24 hours): 2.9±0.3%
Accumulation in the spleen ([1]; after 24 hours): 4.6±1.6%
Accumulation in the tumor ([1]; after 24 hours): 7.4±2.3%
administered amount excreted (blood) ([1]; after 24 hours): about 98%
tumor-to-blood ratio ([1]; after 24 hours): 5.39±1.56
tumor-to-muscle ratio ([1]; after 24 hours): 27.98±2.34

N=C1N[C@H]2[C@H](CS[C@H]2CCCCC(=O)NCCCCCC(=O)Nc2cc(NC(=O)CCCCCNC(=O)CCCC[C@@H]3SC[C@@H]4NC(=N)N[C@@H]43)cc(C(=O)NCCOCCOCCNC(=O)c3cccc([211At])c3)c2)N1 [^211At-psyche-B]
Accumulation in the blood ([2]; after 1 minute): 13.5±1.1 % ID/g
Accumulation in the kidney ([2]; after 1 minute): 72.7±5.6 % ID/g
Accumulation in the liver ([2]; after 1 minute): 51.1±5.9 % ID/g
Accumulation in the tumor ([2]; after 1 minute): 0.3±0.04 % ID/g
Accumulation in the blood ([2]; after 1 hour): 2.1±0.2 % ID/g
Accumulation in the kidney ([2]; after 1 hour): 77.9±2.1 % ID/g
Accumulation in the liver ([2]; after 1 hour): 30.8±3.3 % ID/g
Accumulation in the tumor ([2]; after 1 hour): 0.4±0.02 % ID/g
Accumulation in the blood ([2]; after 6 hours): 1.0±0.2 % ID/g
Accumulation in the kidney ([2]; after 6 hours): 32.1±8.2 % ID/g
Accumulation in the liver ([2]; after 6 hours): 19.6±0.5 % ID/g
Accumulation in the tumor ([2]; after 6 hours): 0.8±0.09 % ID/g
Accumulation in the thyroid gland ([2]; after 6 hours of administration): 0.29±0.05 % ID
Accumulation in the blood ([2]; after 24 hours): 0.2±0.04 % ID/g
Accumulation in the kidney ([2]; after 24 hours): 3.0±0.1%
Accumulation in the liver ([2]; after 24 hours): 5.0±0.2%
Accumulation in the tumor ([2]; after 24 hours): 0.4±0.02%
